Test results from patent publication US9802899B2, “Heterocyclic compounds as pesticides” (BAYER CROPSCIENCE AG, priority 2012, dated 2017).

Experiment: Determination of the log P values by HPLC (formic acid method)
Type: physicochemical
Conditions: reversed-phase HPLC column (C 18), reversed-phase column (C 18), acidic range (pH 3.4), 55° C.
Experimental: 1) Description of Method for Determination of the Log P Values (Formic Acid Method)
Eluents for determination in the acidic range (pH 3.4):
Eluent A: acetonitrile+1 ml of formic acid/liter. Eluent B: water+0.9 ml of formic acid/liter.
The lambda max values were determined in the maxima of the chromatographic signals using the UV spectra from 200 nm to 400 nm.

First: N#Cc1c(-n2ccc(NC(=O)c3ccccc3C(F)(F)F)n2)ccnc1Cl [Compound I-1-585, N-[1-(2-Chloro-3-cyanopyridin-4-yl)-1H-pyrazol-3-yl]-2-(trifluoromethyl)benzamide]
Second: O=C(Nc1ccn(-c2nccc(I)c2F)n1)c1ccccc1C(F)(F)F [Compound I-1-576, N-[1-(3-Fluoro-4-iodopyridin-2-yl)-1H-pyrazol-3-yl]-2-(trifluoromethyl)benzamide]
The chromatographic logP of the first is lower: 2.67 for the first, 2.96 for the second.

First: Nc1ccn(-c2ncc(Cl)cc2F)n1 [1-(5-Chloro-3-fluoropyridin-2-yl)-1H-pyrazole-3-amine]
Second: Nc1ccn(-c2cccc(F)c2F)n1 [1-(2,3-Difluorophenyl)-1H-pyrazole-3-amine]
The chromatographic logP of the first is lower: 1.27 for the first, 1.56 for the second.

Going from `Nc1ccn(-c2cccc(Cl)c2Cl)n1` [1-(2,3-Dichlorophenyl)-1H-pyrazole-3-amine] to `O=C(Nc1cnn(-c2ncc(F)cc2F)n1)c1ccccc1C(F)(F)F` [Compound I-2-63, N-[2-(3,5-Difluoropyridin-2-yl)-2H-1,2,3-triazol-4-yl]-2-(trifluoromethyl)benzamide], the chromatographic logP rises from 1.97 to 2.38.

Same assay, conditions: reversed-phase column (C 18), acidic range (pH 3.4), 55° C.

First: Cc1snnc1C(=O)Nc1ccn(-c2c(F)cccc2F)n1 [Compound I-1-332]
Second: Cc1nc(C)c(C(=O)Nc2ccn(-c3c(F)cccc3F)n2)s1 [Compound I-1-113]
The “log P” value of the first is higher: 2.45 for the first, 2.09 for the second.

Compared with `O=C(Nc1ccn(-c2ncccc2C(F)(F)F)n1)c1ccccc1I` [Compound I-1-427], `O=C(Nc1ccn(-c2ncccc2Br)n1)c1ccccc1I` [Compound I-1-554] is lower in “log P” value: 2.72 for the first, 2.42 for the second.

Compared with `O=C(Nc1ccn(-c2c(F)cccc2F)n1)c1ccccc1-n1cncn1` [Compound I-1-89], `O=C(Nc1ccn(-c2c(F)cccc2F)n1)c1ccccc1O` [Compound I-1-87] is higher in “log P” value: 1.66 for the first, 2.66 for the second.

`Cc1cc(C(=O)Nc2ccn(-c3ccccc3Cl)n2)c(C)o1` [Compound I-1-45] and `Cc1ccsc1C(=O)Nc1ccn(-c2ccccc2Cl)n1` [Compound I-1-46] are within 0.2 log units of each other in “log P” value: 3.05 for the first, 2.96 for the second.

Going from `O=C(Nc1ccn(-c2cc(F)c(F)cc2F)n1)c1ccccc1I` [Compound I-1-196] to `O=C(Nc1ccn(-c2ncc(F)cc2F)n1)c1ccccc1F` [Compound I-1-493], the “log P” value falls from 4.10 to 2.31.

`CC1=C(C(=O)Nc2ccn(-c3ncc(F)cc3F)n2)OCCO1` [Compound I-1-639] and `Cn1ncc(I)c1C(=O)Nc1ccn(-c2ncc(F)cc2F)n1` [Compound I-1-540] are within 0.2 log units of each other in “log P” value: 2.16 for the first, 2.20 for the second.

Compared with `O=C(Nc1nn(-c2cc(F)cnc2F)c2ccccc12)c1ccccc1Br` [Compound I-5-6], `CCc1cc(NC(=O)c2ccccc2Cl)nn1-c1ccc(F)cc1F` [Compound I-1-213] is higher in “log P” value: 3.05 for the first, 3.99 for the second.

First: O=C(NC1=NN(c2c(F)cccc2F)CC1)c1ccccc1C(F)(F)F [Compound I-4-7]
Second: O=C(Nc1nn(-c2c(F)cccc2F)cc1Cl)c1ccccc1C(F)(F)F [Compound I-1-251]
The “log P” value of the first is lower: 2.34 for the first, 2.73 for the second.

Compared with `Cc1nn(C(F)F)c(C(=O)Nc2ccn(-c3ncc(F)cc3F)n2)c1F` [Compound I-1-444], `CCc1nn(C)c(C(=O)Nc2ccn(-c3ncc(F)cc3F)n2)c1Cl` [Compound I-1-534] is higher in “log P” value: 2.65 for the first, 2.98 for the second.

`O=C(Nc1cnn(-c2ncc(F)cc2F)n1)c1sccc1C(F)(F)F` [Compound I-2-85] and `Cn1cc(C(=O)Nc2ccn(-c3ncc(F)cc3F)n2)c(C(F)(F)F)c1` [Compound I-1-156] are within 0.2 log units of each other in “log P” value: 2.50 for the first, 2.31 for the second.

Compared with `O=C(Nc1ccn(-c2c(F)cccc2F)n1)c1c(C(F)(F)F)cc(F)c(F)c1F` [Compound I-1-296], `O=C(Nc1ccn(-c2c(F)cccc2F)n1)c1c(Cl)cccc1C(F)(F)F` [Compound I-1-614] is lower in “log P” value: 3.14 for the first, 2.86 for the second.

Going from `Cc1ccccc1C(=O)N(C(=O)c1cccnc1C)C1=NN(c2c(F)cccc2F)CC1` [Compound I-4-6] to `CC(C)N(C(=O)c1ccccc1C(F)(F)F)c1ccn(-c2c(F)cccc2F)n1` [Compound I-1-260], the “log P” value falls from 4.45 to 3.50.

Compared with `Cn1ncc(F)c1C(=O)Nc1ccn(-c2c(F)cccc2F)n1` [Compound I-1-321], `Cn1ncc(Br)c1C(=O)Nc1ccn(-c2c(F)cccc2F)n1` [Compound I-1-302] is higher in “log P” value: 2.27 for the first, 2.50 for the second.

First: Cc1nc(-n2ccc(NC(=O)c3cccnc3C(F)(F)F)n2)c(F)cc1F [Compound I-1-440]
Second: O=C(Nc1ccn(-c2ncc(F)cn2)n1)c1cccnc1C(F)(F)F [Compound I-1-601]
The “log P” value of the first is higher: 2.38 for the first, 1.73 for the second.

`O=C(Nc1ccn(-c2c(F)cccc2F)n1)c1ncncc1Cl` [Compound I-1-330] and `O=C(Nc1ccn(-c2c(F)cccc2F)n1)c1nccnc1Cl` [Compound I-1-100] are within 0.2 log units of each other in “log P” value: 2.14 for the first, 2.15 for the second.

First: Cc1nn(-c2ncccc2Cl)nc1NC(=O)c1ccccc1I [Compound I-2-59]
Second: O=C(Nc1ccn(-c2ncccc2F)n1)c1ccccc1Cl [Compound I-1-129]
The “log P” value of the first is higher: 2.28 for the first, 2.05 for the second.

`Cc1cccc(C)c1C(=O)Nc1ccn(-c2c(F)cccc2F)n1` [Compound I-1-268] and `O=C(Nc1ccn(-c2c(F)cccc2F)n1)c1c(F)cccc1Cl` [Compound I-1-85] are within 0.2 log units of each other in “log P” value: 2.68 for the first, 2.60 for the second.

`O=C(Nc1cnn(-c2ncc(Cl)cc2Cl)n1)c1cccnc1C(F)(F)F` [Compound I-2-64] and `O=C(Nc1cnn(-c2ccccc2Br)n1)c1cccnc1C(F)(F)F` [Compound I-2-8] are within 0.2 log units of each other in “log P” value: 2.54 for the first, 2.58 for the second.

`O=C(Nc1ccn(-c2cccc(F)c2F)n1)c1ccccc1Cl` [Compound I-1-189] and `O=C(Nc1ccn(-c2cccc(F)c2F)n1)c1ccccc1C(F)(F)F` [Compound I-1-65] are within 0.2 log units of each other in “log P” value: 3.01 for the first, 3.13 for the second.

First: Cc1nn(C)c(F)c1C(=O)Nc1ccn(-c2c(F)cccc2F)n1 [Compound I-1-110]
Second: CCn1ncc(I)c1C(=O)Nc1ccn(-c2c(F)cccc2F)n1 [Compound I-1-235]
The “log P” value of the first is lower: 1.98 for the first, 2.76 for the second.

`O=C(Nc1ccn(-c2ccccc2Cl)n1)c1ccccc1C(F)(F)F` [Compound I-1-14] and `COc1ccccc1-n1ccc(NC(=O)c2ccccc2C(F)(F)F)n1` [Compound I-1-406] are within 0.2 log units of each other in “log P” value: 2.96 for the first, 2.84 for the second.

First: O=C(Nc1ccn(-c2c(F)cccc2F)n1)c1cccnc1CC(F)(F)F [Compound I-1-246]
Second: O=C(Nc1ccn(-c2c(Cl)cccc2Cl)n1)c1cccnc1C(F)(F)F [Compound I-1-124]
The “log P” value of the first is lower: 2.35 for the first, 2.57 for the second.

Compared with `CCn1ncc(Cl)c1C(=O)Nc1ccn(-c2ncc(F)cc2F)n1` [Compound I-1-526], `CCC(C)n1ncc(I)c1C(=O)Nc1ccn(-c2ncc(F)cc2F)n1` (centres unmarked) [Compound I-1-456] is higher in “log P” value: 2.42 for the first, 3.28 for the second.

Compared with `O=C(Nc1ccn(-c2c(F)cccc2F)n1)c1sccc1C(F)F` [Compound I-1-282], `Cn1ccc([N+](=O)[O-])c1C(=O)Nc1ccn(-c2c(F)cccc2F)n1` [Compound I-1-239] is lower in “log P” value: 2.80 for the first, 2.50 for the second.

Compared with `Cc1cc(NC(=O)c2ccccc2Cl)nn1-c1ccc(F)cc1F` [Compound I-1-212], `O=C(Nc1ccn(-c2ncc(Cl)cc2F)n1)c1ccccc1Br` [Compound I-1-589] is lower in “log P” value: 3.58 for the first, 2.78 for the second.

`O=C(Nc1ccn(-c2ncccc2C(F)(F)F)n1)c1cccnc1C(F)(F)F` [Compound I-1-426] and `N#Cc1c(F)cccc1-n1ccc(NC(=O)c2ccccc2C(F)(F)F)n1` [Compound I-1-617] are within 0.2 log units of each other in “log P” value: 2.69 for the first, 2.72 for the second.

Going from `Cn1cnnc1C(=O)Nc1ccn(-c2ncc(F)cc2F)n1` [Compound I-1-544] to `CCCn1cc(Cl)c(C(=O)Nc2ccn(-c3ncc(F)cc3F)n2)n1` [Compound I-1-533], the “log P” value rises from 1.29 to 2.85.

First: O=C(Nc1ccn(-c2ncc(F)cc2F)n1)c1cccnc1Br [Compound I-1-482]
Second: O=C(Nc1ccn(-c2ncc(Cl)cc2F)n1)c1c(F)cccc1F [Compound I-1-588]
The “log P” value of the first is lower: 1.77 for the first, 2.60 for the second.

Going from `O=C(Nc1ccn(-c2ncccc2Br)n1)c1ccccc1Br` [Compound I-1-552] to `Cc1cccnc1C(=O)Nc1ccn(-c2ccccc2Cl)n1` [Compound I-1-38], the “log P” value rises from 2.31 to 3.24.

Compared with `O=C(Nc1ccn(-c2ccccc2[N+](=O)[O-])n1)c1c(F)cccc1F` [Compound I-1-417], `O=C(Nc1ccn(-c2cnc(Cl)cn2)n1)c1c(F)cccc1F` [Compound I-1-387] is higher in “log P” value: 2.34 for the first, 2.67 for the second.

Compared with `O=C(NC1=NN(c2ccccc2Cl)CC1)c1ccccc1Br` [Compound I-4-8], `N#Cc1c(F)cccc1-n1ccc(NC(=O)c2cccnc2Cl)n1` [Compound I-1-622] is lower in “log P” value: 2.37 for the first, 1.95 for the second.

First: O=C(Nc1ccn(-c2c(F)cccc2F)c1)c1ccsc1I [Compound I-3-7]
Second: O=C(c1ccccc1C(F)(F)F)N(CC(F)(F)F)c1ccn(-c2c(F)cccc2F)n1 [Compound I-1-265]
The “log P” value of the first is lower: 3.07 for the first, 3.59 for the second.

In the case of `Cc1c([N+](=O)[O-])c(C(=O)Nc2ccn(-c3ncc(F)cc3F)n2)nn1C` [Compound I-1-448], the “log P” value is reported as 1.83.
